Assay results as given in the NIST ThermoML archive (doi:10.1016/j.jct.2012.12.025).
Numbers after ± are expanded uncertainties.

How the values were obtained:
[1] = cn = amount concentration of the nth substance listed, in mol/dm3; conditions: 298.15 K, 101 kPa, Liquid, Pycnometric method
[2] = 298.15 K; 101.33 kPa; Liquid; Pycnometric method
[3] = wn = mass fraction of the nth substance listed; conditions: 298.15 K, 101 kPa, Liquid, Pycnometric method

**Q.** For CCOC(=O)OC [ethyl methyl carbonate] + O=S(=O)([N-]S(=O)(=O)C(F)(F)F)C(F)(F)F.[Li+], which mass density ([1]; c2 = 1) is on record?
**A.** 1130 ± 100 kg/m3

**Q.** Which mass density ([1]; c1 = 1) does the source give for F[P-](F)(F)(F)(F)F.[Li+] [lithium hexafluorophosphate] + COC(=O)OC here?
**A.** 1140 ± 100 kg/m3

**Q.** For F[P-](F)(F)(F)(F)F.[Li+] [lithium hexafluorophosphate] + CCOC(=O)OC, which mass density ([1]; c1 = 1) is on record?
**A.** 1090 ± 100 kg/m3

**Q.** Which mass density ([1]; c1 = 1) does the source give for F[P-](F)(F)(F)(F)F.[Li+] [lithium hexafluorophosphate] + O=C1OCCO1 here?
**A.** 1400 ± 100 kg/m3

**Q.** With F[P-](F)(F)(F)(F)F.[Li+] [lithium hexafluorophosphate] + CCOC(=O)OCC as the compound, how does the mass density ([1]; c1 = 1) read?
**A.** 1050 ± 100 kg/m3

**Q.** Which mass density ([1]; c1 = 1) does the source give for O=S(=O)([N-]S(=O)(=O)C(F)(F)F)C(F)(F)F.[Li+] [lithium bis((trifluoromethyl)sulfonyl)amide] + COC(=O)OC here?
**A.** 1160 ± 100 kg/m3

**Q.** Which mass density ([1]; c1 = 1) does the source give for O=S(=O)([N-]S(=O)(=O)C(F)(F)F)C(F)(F)F.[Li+] [lithium bis((trifluoromethyl)sulfonyl)amide] + CCOC(=O)OCC here?
**A.** 1100 ± 100 kg/m3

**Q.** With CCOC(=O)OC [ethyl methyl carbonate] as the compound, how does the mass density [2] read?
**A.** 1010 ± 100 kg/m3

**Q.** Which mass density [2] does the source give for O=C1OCCO1 [ethylene carbonate] here?
**A.** 1350 ± 100 kg/m3

**Q.** For O=S(=O)([N-]S(=O)(=O)C(F)(F)F)C(F)(F)F.[Li+] [lithium bis((trifluoromethyl)sulfonyl)amide] + O=C1OCCO1, which mass density ([1]; c1 = 1) is on record?
**A.** 1420 ± 100 kg/m3

**Q.** With O=C1OCCO1 [ethylene carbonate] + COC(=O)OC as the compound, how does the mass density ([3]; w1 = 0.5) read?
**A.** 1230 ± 100 kg/m3

**Q.** With CCOC(=O)OC [ethyl methyl carbonate] + O=C1OCCO1 as the compound, how does the mass density ([3]; w2 = 0.5) read?
**A.** 1190 ± 100 kg/m3

**Q.** Which mass density [2] does the source give for CCOC(=O)OCC [diethyl carbonate] here?
**A.** 970 ± 100 kg/m3

**Q.** Which mass density ([3]; w1 = 0.5) does the source give for O=C1OCCO1 [ethylene carbonate] + CCOC(=O)OCC here?
**A.** 1090 ± 100 kg/m3

**Q.** For COC(=O)OC [dimethyl carbonate], which mass density [2] is on record?
**A.** 1070 ± 100 kg/m3
